From patent publication US20140287447A1, “Ultrasensitive methodology for quantifying the kinase catalytic activity of any protein kinase in biological/clinical samples or recombinant/purified proteins using near-infrared-fluorescence (NIRF)-labeled, kinase-selective peptide substrates and a combination of kinase-selective inhibitors to …” (priority 2013, published 2014)

B1: recombinant PKG-Iα (rPKG-Iα) (Homo sapiens) (protein)
chain: MSELEEDFAKILMLKEERIKELEKRLSEKEEEIQELKRKLHKCQSVLPVPSTHIGPRTTRAQGISAEPQTYRSFHDLRQAFRKFTKSERSKDLIKEAILDNDFMKNLELSQIQEIVDCMYPVEYGKDSCIIKEGDVGSLVYVMEDGKVEVTKEGVKLCTMGPGKVFGELAILYNCTRTATVKTLVNVKLWAIDRQCFQTIMMRTGLIKHTEYMEFLKSVPTFQSLPEEILSKLADVLEETHYENGEYIIRQGARGDTFFIISKGTVNVTREDSPSEDPVFLRTLGKGDWFGEKALQGEDVRTANVIAAEAVTCLVIDRDSFKHLIGGLDDVSNKAYEDAEAKAKYEAEAAFFANLKLSDFNIIDTLGVGGFGRVELVQLKSEESKTFAMKILKKRHIVDTRQQEHIRSEKQIMQGAHSDFIVRLYRTFKDSKYLYMLMEACLGGELWTILRDRGSFEDSTTRFYTACVVEAFAYLHSKGIIYRDLKPENLILDHRGYAKLVDFGFAKKIGFGKKTWTFCGTPEYVAPEIILNKGHDISADYWSLGILMYELLTGSPPFSGPDPMKTYNIILRGIDMIEFPKKIAKNAANLIKKLCRDNPSERLGNLKNGVKDIQKHKWFEGFNWEGLRKGTLTPPIIPSVASPTDTSNFDSFPEDNDEPPPDDNSGWDIDF

Experiments:
[1] = test system: MDA-MB-231 breast cancer cell lysates; test: NIRF-based kinase reaction in breast cancer cell lysates with and without PKC-inhibitor cocktail; format: biochemical; conditions: cGMP 10 μM, MDA-MB-231 cell lysates
Protocol: This allows simultaneous determination of PKG-I kinase activity in MDA-MB-231 breast cancer cell lysates (D).
Each reagent has been previously experimentally tested to be the optimum concentration used for a complete radioactive-free kinase reaction to measure PKG kinase activity. The reagents for homogenizing buffer include: 20 mM Potassium phosphate (pH 7.0), 10 mM EDTA, 0.5 mM isobutylmethylxanthine, and 10 mM DTT.
Table 5 is the disclosure protocol that is illustrated as a work flow in FIG. 7. Biological samples can be prepared in the homogenizing buffer (Table 4) using a variety of techniques. These techniques include, but are not limited to: sonication, dounce-homogenation, the use of a tissue grinder, and/or a detergent specialized for lysing cells. Once a biological sample is prepared in the specially formulated homogenizing buffer from Table 4 or purified/recombinant protein buffer recommended by the manufacturer (2) included in the disclosure, the sample can be added to a sterile microfuge tube containing the radioactive-free kinase reaction mixture containing NIRF-Histone-H2B(29-35) (Table 3 and FIG. 1) (4). The kinase reaction typically requires an incubation chamber capable of reaching a temperature of 30° C. to incubate the samples. The time and temperature of incubation is determined by the researcher, but short incubation times of 2 minutes can be used. […]

[2] = substrate: Nc1ncnc2c1ncn2[C@@H]1O[C@H](COP(=O)(O)OP(=O)(O)OP(=O)(O)O)[C@@H](O)[C@H]1O; test: purified protein, by the assay type; conditions: 30.0 °C

Row | Molecule | effect of exogenously-added cGMP on kinase activity in cell lysates [1] | Km [2]
1 | Nc1nc2c(ncn2[C@@H]2O[C@@H]3COP(=O)(O)O[C@H]3[C@H]2O)c(=O)[nH]1 [cGMP, cyclic guanosine monophosphate] | does not cause increased kinase activity | –
2 | B1 | – | 8.8 µM
